Test results reported in US20250236608A1, “EGFR INHIBITORS” (Blueprint Medicines Corporation, priority 2022, published 2025).

Key:
[1] = biological target: EGFR L858R (Homo sapiens (Human), UniProt P00533, L858R); test: Biochemical EGFR inhibition assay, EGFR L858R; details: Caliper mobility shift; 1.0 mM ATP or ATP Km; read-out: Enz EGFR_L858R IC50
[2] = biological target: pEGFR (Tyr1068) in PC-9 cells (Ex19Del) (Homo sapiens (Human), UniProt P00533, DEL746-750); test: PC-9 pEGFR AlphaLISA assay; format: cell-based; details: 4 hours incubation, p-EGFR (Tyr1068) AlphaLISA, read-out: Ext pEGFR_PC-9 Ex19Del IC50
Chain of pEGFR (Tyr1068) in PC-9 cells (Ex19Del) (P00533 other isoform, or with tags, fused parts or gaps del 746-750): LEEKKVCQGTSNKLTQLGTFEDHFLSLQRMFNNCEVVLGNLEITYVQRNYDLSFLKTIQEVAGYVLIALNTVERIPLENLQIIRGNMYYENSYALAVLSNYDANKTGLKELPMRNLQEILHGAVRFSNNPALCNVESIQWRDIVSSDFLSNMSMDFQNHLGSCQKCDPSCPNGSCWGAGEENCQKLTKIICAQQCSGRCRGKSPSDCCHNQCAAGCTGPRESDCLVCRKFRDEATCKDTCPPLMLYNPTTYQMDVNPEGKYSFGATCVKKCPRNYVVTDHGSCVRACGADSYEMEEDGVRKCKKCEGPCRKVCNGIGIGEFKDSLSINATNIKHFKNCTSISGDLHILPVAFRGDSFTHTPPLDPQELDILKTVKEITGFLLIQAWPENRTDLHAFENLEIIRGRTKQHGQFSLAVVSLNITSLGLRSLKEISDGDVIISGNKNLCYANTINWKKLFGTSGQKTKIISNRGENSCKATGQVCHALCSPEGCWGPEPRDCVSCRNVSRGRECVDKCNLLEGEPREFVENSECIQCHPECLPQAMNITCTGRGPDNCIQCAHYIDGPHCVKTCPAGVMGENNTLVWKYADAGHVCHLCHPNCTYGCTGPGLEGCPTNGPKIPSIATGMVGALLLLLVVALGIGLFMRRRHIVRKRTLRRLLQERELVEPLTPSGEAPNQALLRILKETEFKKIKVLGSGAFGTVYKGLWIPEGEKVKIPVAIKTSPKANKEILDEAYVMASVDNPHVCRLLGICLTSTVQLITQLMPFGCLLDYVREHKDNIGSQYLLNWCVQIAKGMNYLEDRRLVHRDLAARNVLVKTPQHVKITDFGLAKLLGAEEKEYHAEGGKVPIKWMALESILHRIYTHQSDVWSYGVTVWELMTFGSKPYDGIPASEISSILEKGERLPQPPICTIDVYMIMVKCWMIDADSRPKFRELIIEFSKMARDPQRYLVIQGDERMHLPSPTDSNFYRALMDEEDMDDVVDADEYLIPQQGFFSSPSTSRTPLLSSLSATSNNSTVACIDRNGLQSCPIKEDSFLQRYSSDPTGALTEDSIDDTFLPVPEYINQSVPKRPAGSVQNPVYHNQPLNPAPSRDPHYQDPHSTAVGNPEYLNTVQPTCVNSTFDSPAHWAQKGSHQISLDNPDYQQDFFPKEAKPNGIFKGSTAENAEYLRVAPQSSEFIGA
Method in brief: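 PC-9 cells seeded overnight in phenol-free DMEM with 10% FBS, then treated 4 h at 37°C with a 10-point, 4-fold compound series. Lysates assayed for pEGFR Tyr1068 by AlphaLISA SureFire; IC50 from % inhibition vs log concentration.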

[3] = biological target: EGFR (d746-750) (Homo sapiens (Human), UniProt P00533, DEL746-750); test: Biochemical EGFR inhibition assay, EGFR (d746-750); details: Caliper mobility shift; 1.0 mM ATP or ATP Km; read-out: Enz EGFR_Exon19-del746-750 IC50
Chain of EGFR (d746-750) (P00533 other isoform, or with tags, fused parts or gaps del 1-694/del 746-750 limits assumed): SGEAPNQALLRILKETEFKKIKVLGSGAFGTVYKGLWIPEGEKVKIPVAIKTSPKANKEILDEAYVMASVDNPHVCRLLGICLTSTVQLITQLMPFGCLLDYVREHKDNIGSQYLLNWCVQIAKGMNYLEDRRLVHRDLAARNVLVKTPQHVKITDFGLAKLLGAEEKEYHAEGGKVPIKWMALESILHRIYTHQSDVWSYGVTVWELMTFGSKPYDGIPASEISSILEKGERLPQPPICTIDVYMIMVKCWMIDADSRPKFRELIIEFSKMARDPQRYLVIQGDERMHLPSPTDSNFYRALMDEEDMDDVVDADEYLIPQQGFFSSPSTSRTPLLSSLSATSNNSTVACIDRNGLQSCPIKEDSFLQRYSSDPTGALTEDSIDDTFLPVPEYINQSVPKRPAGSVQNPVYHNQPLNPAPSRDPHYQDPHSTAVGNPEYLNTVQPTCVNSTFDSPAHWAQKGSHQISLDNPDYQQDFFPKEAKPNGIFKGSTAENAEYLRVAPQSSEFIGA

Chain of EGFR L858R (P00533 25-1210 L858R): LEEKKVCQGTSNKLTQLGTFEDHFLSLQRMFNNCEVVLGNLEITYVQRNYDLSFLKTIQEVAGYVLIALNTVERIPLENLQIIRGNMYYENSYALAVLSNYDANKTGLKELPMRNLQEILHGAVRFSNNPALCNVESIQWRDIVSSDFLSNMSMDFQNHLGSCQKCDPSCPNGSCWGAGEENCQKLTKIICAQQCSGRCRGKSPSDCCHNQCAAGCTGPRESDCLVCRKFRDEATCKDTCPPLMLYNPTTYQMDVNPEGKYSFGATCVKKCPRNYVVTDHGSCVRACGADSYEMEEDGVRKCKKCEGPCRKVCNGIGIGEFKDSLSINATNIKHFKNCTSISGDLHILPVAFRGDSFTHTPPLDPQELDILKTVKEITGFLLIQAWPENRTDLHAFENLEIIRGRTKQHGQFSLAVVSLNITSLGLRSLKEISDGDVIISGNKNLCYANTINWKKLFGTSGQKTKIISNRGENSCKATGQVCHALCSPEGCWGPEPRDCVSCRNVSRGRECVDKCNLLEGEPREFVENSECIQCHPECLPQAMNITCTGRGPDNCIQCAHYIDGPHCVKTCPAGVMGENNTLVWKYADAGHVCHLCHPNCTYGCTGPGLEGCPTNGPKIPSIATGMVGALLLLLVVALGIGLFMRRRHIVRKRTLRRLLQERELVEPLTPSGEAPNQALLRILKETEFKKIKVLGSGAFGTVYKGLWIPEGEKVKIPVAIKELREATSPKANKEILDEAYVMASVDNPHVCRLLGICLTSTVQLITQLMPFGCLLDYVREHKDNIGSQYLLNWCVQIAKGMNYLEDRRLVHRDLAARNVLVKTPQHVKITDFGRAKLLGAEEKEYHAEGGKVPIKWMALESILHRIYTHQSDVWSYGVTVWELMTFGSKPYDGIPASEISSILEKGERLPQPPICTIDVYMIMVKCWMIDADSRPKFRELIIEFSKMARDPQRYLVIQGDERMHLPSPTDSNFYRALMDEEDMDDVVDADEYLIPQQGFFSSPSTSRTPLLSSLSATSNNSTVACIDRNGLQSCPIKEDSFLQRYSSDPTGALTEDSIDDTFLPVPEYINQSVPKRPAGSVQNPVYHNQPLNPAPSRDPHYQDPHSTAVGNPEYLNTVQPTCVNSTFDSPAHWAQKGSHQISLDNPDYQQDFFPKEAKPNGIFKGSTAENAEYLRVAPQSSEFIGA

`COc1cc2ncnc(-c3cn(CC(F)F)nc3-c3ccccc3)c2cc1NC(=O)c1cnn(C(C)C)c1` [Example 270, N-(4-(1-(2,2-difluoroethyl)-3-phenyl-1H-pyrazol-4-yl)-7-methoxyquinazolin-6-yl)-1-isopropyl-1H-pyrazole-4-carboxamide] showed an IC50 [1] of 2.1 nM, an IC50 [2] of 1.4 nM and an IC50 [3] of 1.4 nM.

With `COc1cc2ncnc(-c3cn(C)nc3-c3ccccc3)c2nc1NC(=O)C1(C(F)(F)F)CC1` [Example 361, N-(7-methoxy-4-(1-methyl-3-phenyl-1H-pyrazol-4-yl)pyrido[3,2-d]pyrimidin-6-yl)-1-(trifluoromethyl)cyclopropane-1-carboxamide] the IC50 [1] was 1.6 nM, the IC50 [2] was 1.2 nM and the IC50 [3] was 0.9 nM.

`CCOc1cc2ncnc(-c3cn(C(C)C)nc3-c3ccccc3)c2cc1CO` [Example 125, (7-ethoxy-4-(1-isopropyl-3-phenyl-1H-pyrazol-4-yl)quinazolin-6-yl)methanol] gave an IC50 [1] of 1.4 nM, an IC50 [2] of 2.1 nM and an IC50 [3] of 0.9 nM.

Work on `COc1cc2ncnc(-c3cn(C)nc3-c3ccccc3)c2cc1NC(=O)[C@H]1CCN1C` (single isomer, unassigned) [Example 253, (R)—N-(7-methoxy-4-(1-methyl-3-phenyl-1H-pyrazol-4-yl)quinazolin-6-yl)-1-methylazetidine-2-carboxamide or (S)—N-(7-methoxy-4-(1-methyl-3-phenyl-1H-pyrazol-4-yl)quinazolin-6-yl)-1-methylazetidine-2-carboxamide] yielded an IC50 [1] of 2.4 nM, an IC50 [2] of 3.9 nM and an IC50 [3] of 1.9 nM.

`COc1cc2ncnc(-c3cn(C)nc3-c3ccccc3)c2cc1NC(=O)C12CC(F)(C1)C2` [Example 342, 3-fluoro-N-(7-methoxy-4-(1-methyl-3-phenyl-1H-pyrazol-4-yl)quinazolin-6-yl)bicyclo[1.1.1]pentane-1-carboxamide] was tested, and the IC50 [1] was 6.7 nM, the IC50 [2] was 11.2 nM and the IC50 [3] was 3.5 nM.

`COc1cc2ncnc(-c3cn(C)nc3-c3ccccc3)c2cc1NC(=O)c1cnn(C(C)C)c1` [Example 208, 1-isopropyl-N-(7-methoxy-4-(1-methyl-3-phenyl-1H-pyrazol-4-yl)quinazolin-6-yl)-1H-pyazole-4-carboxamide] gave an IC50 [1] of 1.1 nM, an IC50 [2] of 1.8 nM and an IC50 [3] of 0.7 nM.

For `CCOc1cc2ncnc(-c3cn(C)nc3-c3ccccc3F)c2nc1NC(=O)[C@@]12C[C@@H]1CN(C)C2` (single isomer, unassigned) [Example 400, (1S,5S)—N-(7-ethoxy-4-(3-(2-fluorophenyl)-1-methyl-1H-pyrazol-4-yl)pyrido[3,2-d]pyrimidin-6-yl)-3-methyl-3-azabicyclo[3.1.0]hexane-1-carboxamide or (1R,5R)—N-(7-ethoxy-4-(3-(2-fluorophenyl)-1-methyl-1H-pyrazol-4-yl)pyrido[3,2-d]pyrimidin-6-yl)-3-methyl-3-azabicyclo[3.1.0]hexane-1-carboxamide], the IC50 [1] was 141 nM, the IC50 [2] was 2 nM and the IC50 [3] was 1.6 nM.

For `CCOc1cc2ncnc(-c3cn(C)nc3-c3ccccc3)c2cc1OC(=O)N1CCN(C)C[C@@H]1C` [Example 96, 7-ethoxy-4-(1-methyl-3-phenyl-1H-pyrazol-4-yl)quinazolin-6-yl(S)-2,4-dimethylpiperazine-1-carboxylate], the IC50 [1] was 1.6 nM, the IC50 [2] was 1.9 nM and the IC50 [3] was 1.1 nM.

With `CC(C)Oc1cc2ncnc(-c3cn(C)nc3-c3ccccc3)c2cc1OC(=O)N1CCOC[C@H]1C` [Example 71, 7-isopropoxy-4-(1-methyl-3-phenyl-1H-pyrazol-4-yl)quinazolin-6-yl (R)-3-methylmorpholine-4-carboxylate] the IC50 [1] was 4.5 nM, the IC50 [2] was 6.8 nM and the IC50 [3] was 2.5 nM.

Molecule `COc1cc2ncnc(-c3cn(C)nc3-c3ccccc3)c2nc1NC(=O)[C@@]12C[C@@H]1CN(C)C2` (single isomer, unassigned) [Example 392, (1S,5S)—N-(7-methoxy-4-(1-methyl-3-phenyl-1H-pyrazol-4-yl)pyrido[3,2-d]pyrimidin-6-yl)-3-methyl-3-azabicyclo[3.1.0]hexane-1-carboxamide or (1R,5R)—N-(7-methoxy-4-(1-methyl-3-phenyl-1H-pyrazol-4-yl)pyrido[3,2-d]pyrimidin-6-yl)-3-methyl-3-azabicyclo[3.1.0]hexane-1-carboxamide] has an IC50 [1] of 6.1 nM, an IC50 [2] of 5.9 nM and an IC50 [3] of 2.2 nM.

`COc1cc2ncnc(-c3cn(C)nc3-c3ccccc3)c2cc1NC(=O)N1C[C@@H](C)OC[C@@H]1C` [Example 183, (2R,5S)-N-(7-methoxy-4-(1-methyl-3-phenyl-1H-pyrazol-4-yl)quinazolin-6-yl)-2,5-dimethylmorpholine-4-carboxamide] showed an IC50 [1] of 8 nM, an IC50 [2] of 10.7 nM and an IC50 [3] of 3.6 nM.

`COc1cc2ncnc(-c3cn(C)nc3-c3ccccc3)c2nc1NC(=O)C1CC1` [Example 355, N-(7-methoxy-4-(1-methyl-3-phenyl-1H-pyrazol-4-yl)pyrido[3,2-d]pyrimidin-6-yl)cyclopropanecarboxamide] gave an IC50 [1] of 1.7 nM, an IC50 [2] of 0.8 nM and an IC50 [3] of 1 nM.

For `COc1cc2ncnc(-c3cn(C)nc3-c3ccccc3F)c2nc1NC(=O)C1(C(F)F)CC1` [Example 366, 1-(difluoromethyl)-N-(4-(3-(2-fluorophenyl)-1-methyl-1H-pyrazol-4-y1)-7-methoxypyrido[3,2-d]pyrimidin-6-yl)cyclopropane-1-carboxamide], the IC50 [1] was 1.4 nM, the IC50 [2] was 1.4 nM and the IC50 [3] was 0.8 nM.

Molecule `COc1cc2ncnc(-c3cn(C)nc3-c3ccccc3)c2cc1NC(=O)C(C)F` (stereo not drawn) [Example 221, 2-fluoro-N-(7-methoxy-4-(1-methyl-3-phenyl-1H-pyrazol-4-yl)quinazolin-6-yl)propanamide] has an IC50 [1] of 1.8 nM, an IC50 [2] of 2.3 nM and an IC50 [3] of 1 nM.

Molecule `COc1cc2ncnc(-c3cn(C)nc3-c3ccccc3)c2cc1NC(=O)c1ccnn1C(C)C` [Example 218, 1-isopropyl-N-(7-methoxy-4-(1-methyl-3-phenyl-1H-pyrazol-4-yl)quinazolin-6-yl)-1H-pyrazole-5-carboxamide] has an IC50 [1] of 2.1 nM, an IC50 [2] of 2.7 nM and an IC50 [3] of 1 nM.

`COCCOc1cc2ncnc(-c3cn(CC(F)F)nc3-c3ccccc3)c2cc1OC` [Example 16, 4-(1-(2,2-difluoroethyl)-3-phenyl-1H-pyrazol-4-yl)-6-methoxy-7-(2-methoxyethoxy)quinazoline] gave an IC50 [1] of 1.8 nM, an IC50 [2] of 2.1 nM and an IC50 [3] of 1.2 nM.

`CN1CC[C@@H](Oc2cc3c(-c4cn(C)nc4-c4ccccc4)ncnc3cc2OC(F)F)[C@H](F)C1` [Example 475, 7-(difluoromethoxy)-6-{[(3R,4R)-3-fluoro-1-methylpiperidin-4-yl]oxy}-4-(1-methyl-3-phenyl-1H-pyrazol-4-yl)quinazoline] showed an IC50 [1] of 65.5 nM, an IC50 [2] of 71.6 nM and an IC50 [3] of 21 nM.

`CCn1cc(-c2ncnc3cc(OC)c(NC(=O)[C@@]45COC[C@@H]4C5)cc23)c(-c2ccc(F)cc2)n1` [Example 334, (1R,5R)—N-(4-(1-ethyl-3-(4-fluorophenyl)-1H-pyrazol-4-yl)-7-methoxyquinazolin-6-yl)-3-oxabicyclo[3.1.0]hexane-1-carboxamide] was tested, and the IC50 [1] was 2.4 nM, the IC50 [2] was 2.2 nM and the IC50 [3] was 1.5 nM.

`COc1cc2ncnc(-c3cn(C)nc3-c3ccccc3)c2cc1C1=CCN(C)C1` [Example 131, 7-methoxy-6-(1-methyl-2,5-dihydro-1H-pyrrol-3-yl)-4-(1-methyl-3-phenyl-1H-pyrazol-4-yl)quinazoline] gave an IC50 [1] of 1.6 nM, an IC50 [2] of 3.3 nM and an IC50 [3] of 1.9 nM.

`CCOc1cc2ncnc(-c3cn(C)nc3-c3ccc(F)cc3)c2nc1NC(=O)[C@]12COC[C@H]1C2` (single isomer, unassigned) [Example 384, (1S,5S)—N-(7-ethoxy-4-(3-(4-fluorophenyl)-1-methyl-1H-pyrazol-4-yl)pyrido[3,2-d]pyrimidin-6-yl)-3-oxabicyclo[3.1.0]hexane-1-carboxamide or (1R,5R)—N-(7-ethoxy-4-(3-(4-fluorophenyl)-1-methyl-1H-pyrazol-4-yl)pyrido[3,2-d]pyrimidin-6-yl)-3-oxabicyclo[3.1.0]hexane-1-carboxamide] gave an IC50 [1] of 1.1 nM, an IC50 [2] of 1.1 nM and an IC50 [3] of 0.3 nM.

In the case of `COc1cc2ncnc(-c3cn(C)nc3-c3ccccc3)c2cc1NC(=O)c1cccc(C)n1` [Example 329, N-(7-methoxy-4-(1-methyl-3-phenyl-1H-pyrazol-4-yl)quinazolin-6-yl)-6-methylpicolinamide], the IC50 [1] is reported as 1.4 nM, the IC50 [2] is reported as 1.3 nM and the IC50 [3] is reported as 0.9 nM.

`CCOc1cc2ncnc(-c3cn(C)nc3-c3ccccc3)c2cc1N1CCN(C)CC1` [Example 162, 7-ethoxy-4-(1-methyl-3-phenyl-1H-pyrazol-4-yl)-6-(4-methylpiperazin-1-yl)quinazoline] was tested, and the IC50 [1] was 7 nM, the IC50 [2] was 6 nM and the IC50 [3] was 2.6 nM.

`CC(C)Oc1cc2ncnc(-c3cn(C)nc3-c3ccccc3)c2cc1[C@@H](C)O` (single isomer, unassigned) [Example 114, (R)-1-(7-isopropoxy-4-(1-methyl-3-phenyl-1H-pyrazol-4-yl)quinazolin-6-yl)ethan-1-ol or (S)-1-(7-isopropoxy-4-(1-methyl-3-phenyl-1H-pyrazol-4-yl)quinazolin-6-yl)ethan-1-ol] was tested, and the IC50 [1] was 2.9 nM, the IC50 [2] was 28.9 nM and the IC50 [3] was 2.3 nM.

`COc1cc2ncnc(-c3cn(CC(F)F)nc3-c3ccccc3)c2cc1O[C@@H]1CCN(C)C[C@H]1F` [Example 3, 4-(1-(2,2-difluoroethyl)-3-phenyl-1H-pyrazol-4-yl)-6-(((3R,4R)-3-fluoro-1-methylpiperidin-4-yl)oxy)-7-methoxyquinazoline] showed an IC50 [1] of 2.4 nM, an IC50 [2] of 0.3 nM and an IC50 [3] of 1.5 nM.
